Assay results reported in patent US6472348B1, “Pyridone derivatives and herbicides” (Kumiai Chemical Industry Co., Ltd., priority 1996, dated 2002).

Legend:
pale smartweed (Po) [1] = assay: Test Example 6: crop plant selectivity by upland field soil treatment (soybean), herbicidal effects; assay type: in vivo; set-up: scale not given here; conditions: dose 6.3 g ai/10a, 21st day after application
Protocol: (§1) (Test on Crop Plant Selectivity by Upland Field Soil Treatment)
(§2) In a plastic pot (surface area: 600 cm^2) filled with sand, soybean (Gl), Diaitaria ciliaris (Di), green foxtail (Se), Johnsongrass (So), pale smartweed (Po), slender amaranth (Am), common lambsquarters (Ch) and China jute (Ab) were sown and covered with soil. […] The plants were then cultured in a green house, and the evaluation of the herbicidal effects and phytotoxicity was conducted on the 21st day after the application in accordance with the standards as identified in Table 47. Symbol—represents “not tested”.

slender amaranth (Am) [2] = assay: as above; assay type: in vivo; set-up: scale not given here; conditions: dose 6.3 g ai/10a, 21st day after application
Protocol: as §1, §2

green foxtail (Se) [3] = assay: as above; assay type: in vivo; set-up: scale not given here; conditions: dose 6.3 g ai/10a, 21st day after application
Protocol: as §1, §2

[4] = test system: common lambsquarters (Ch); assay: as above; assay type: in vivo; set-up: scale not given here; conditions: dose 6.3 g ai/10a, 21st day after application
Protocol: as §1, §2

China jute (Ab) [5] = assay: as above; assay type: in vivo; set-up: scale not given here; conditions: dose 6.3 g ai/10a, 21st day after application
Protocol: as §1, §2

monochoria (Mo) = assay: Test Example 1: herbicidal effects by paddy field soil treatment; assay type: in vivo; conditions: 100 g of the active ingredient per 10 ares, 21st day after the application, index 0-5 of Table 47;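 note: grade of growth control; 5 = at least 90%; 4 = 70 to 90%; 3 = 50 to 70%; 2 = 30 to 50%; 1 = 10 to 30%; 0 = under 10%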
Summary of the method: (§3)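 Flooded paddy-soil pots (3 cm water) sown after puddling/leveling; treatment 100 g a.i./10 ares; greenhouse culture; herbicidal effect rated visually on a scoring scale at 21 d post-application.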

barnyardgrass (Ec) [6] = assay: as above; assay type: in vivo; conditions: 100 g of the active ingredient per 10 ares, 21st day after the application, index 0-5 of Table 47
Summary of the method: as §3

bulrush (Sc) = assay: as above; assay type: in vivo; conditions: 100 g of the active ingredient per 10 ares, 21st day after the application, index 0-5 of Table 47;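 note: grade of growth control; 5 = at least 90%; 4 = 70 to 90%; 3 = 50 to 70%; 2 = 30 to 50%; 1 = 10 to 30%; 0 = under 10%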
Summary of the method: as §3

wheat (Tr) [7] = assay: Test Example 5: crop plant selectivity by upland field soil treatment (wheat), phytotoxicity; assay type: in vivo; set-up: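 grade of crop injury; 5 = at least 90%; 4 = 70 to 90%; 3 = 50 to 70%; 2 = 30 to 50%; 1 = 10 to 30%; 0 = under 10%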; conditions: dose 6.3 g ai/10a, 21st day after application
Protocol: as §1
(§4) In a plastic pot (surface area: 600 cm^2) filled with sand, wheat (Tr), Diaitaria ciliaris (Di), green foxtail (Se), pale smartweed (Po), slender amaranth (Am), common lambsquarters (Ch) and China jute (Ab) were sown and covered with soil. […] The plants were then cultured in a green house, and the evaluation of the herbicidal effects and phytotoxicity was conducted on the 21st day after the application in accordance with the standards as identified in Table 47. Symbol—represents “not tested”.

pale smartweed (Po) [8] = assay: Test Example 5: crop plant selectivity by upland field soil treatment (wheat), herbicidal effects; assay type: in vivo; set-up: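 grade of growth control; 5 = at least 90%; 4 = 70 to 90%; 3 = 50 to 70%; 2 = 30 to 50%; 1 = 10 to 30%; 0 = under 10%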; conditions: dose 6.3 g ai/10a, 21st day after application
Protocol: as §1, §4

slender amaranth (Am) [9] = assay: as above; assay type: in vivo; set-up: scale not given here; conditions: dose 6.3 g ai/10a, 21st day after application
Protocol: as §1, §4

green foxtail (Se) [10] = assay: as above; assay type: in vivo; set-up: scale not given here; conditions: dose 6.3 g ai/10a, 21st day after application
Protocol: as §1, §4

[11] = test system: common lambsquarters (Ch); assay: as above; assay type: in vivo; set-up: scale not given here; conditions: dose 6.3 g ai/10a, 21st day after application
Protocol: as §1, §4

China jute (Ab) [12] = assay: as above; assay type: in vivo; set-up: scale not given here; conditions: dose 6.3 g ai/10a, 21st day after application
Protocol: as §1, §4

pale smartweed (Po) [13] = assay: Test Example 2: herbicidal effects by upland field soil treatment; assay type: in vivo; conditions: 100 g of the active ingredient per 10 ares;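 note: grade of growth control; 5 = at least 90%; 4 = 70 to 90%; 3 = 50 to 70%; 2 = 30 to 50%; 1 = 10 to 30%; 0 = under 10%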
From the text: (§5) (Test on Herbicidal Effects by Upland Field Soil Treatment)

slender amaranth (Am) [14] = assay: as above; assay type: in vivo; conditions: 100 g of the active ingredient per 10 ares
From the text: as §5

Digitaria ciliaris (Di) = assay: as above; assay type: in vivo; conditions: 100 g of the active ingredient per 10 ares;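 note: grade of growth control; 5 = at least 90%; 4 = 70 to 90%; 3 = 50 to 70%; 2 = 30 to 50%; 1 = 10 to 30%; 0 = under 10%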
From the text: as §5

[15] = test system: common lambsquarters (Ch); assay: as above; assay type: in vivo; conditions: 100 g of the active ingredient per 10 ares
From the text: as §5

barnyardgrass (Ec) [16] = assay: as above; assay type: in vivo; conditions: 100 g of the active ingredient per 10 ares
From the text: as §5

rice flatsedge (Ci) [17] = assay: as above; assay type: in vivo; conditions: 100 g of the active ingredient per 10 ares
From the text: as §5

cotton (Go) = assay: Test Example 4: crop plant selectivity by upland field soil treatment (cotton), phytotoxicity; assay type: in vivo; set-up: scale not given here; conditions: dose 6.3 g ai/10 a, evaluated 21st day after application
Protocol: as §1
(§6) In a plastic pot (surface area: 600 cm^2) filled with sand, cotton (Go), Diaitaria ciliaris (Di), green foxtail (Se), pale smartweed (Po), slender amaranth (Am), common lambsquarters (Ch) and China jute (Ab) were sown and covered with soil. […] The plants were then cultured in a green house, and the evaluation of the herbicidal effects and phytotoxicity was conducted on the 21st day after the application in accordance with the standards as identified in Table 47. Symbol—represents “not tested”.

soybean (Gl) = assay: Test Example 6: crop plant selectivity by upland field soil treatment (soybean), phytotoxicity; assay type: in vivo; set-up: scale not given here; conditions: dose 6.3 g ai/10a, 21st day after application
Protocol: as §1, §2

pale smartweed (Po) [18] = assay: Test Example 4: crop plant selectivity by upland field soil treatment (cotton), herbicidal effects; assay type: in vivo; set-up: scale not given here; conditions: dose 6.3 g ai/10 a, evaluated 21st day after application
Protocol: as §1, §6

slender amaranth (Am) [19] = assay: as above; assay type: in vivo; set-up: scale not given here; conditions: dose 6.3 g ai/10 a, evaluated 21st day after application
Protocol: as §1, §6

green foxtail (Se) [20] = assay: as above; assay type: in vivo; set-up: scale not given here; conditions: dose 6.3 g ai/10 a, evaluated 21st day after application
Protocol: as §1, §6

[21] = test system: common lambsquarters (Ch); assay: as above; assay type: in vivo; set-up: scale not given here; conditions: dose 6.3 g ai/10 a, evaluated 21st day after application
Protocol: as §1, §6

China jute (Ab) [22] = assay: as above; assay type: in vivo; set-up: scale not given here; conditions: dose 6.3 g ai/10 a, evaluated 21st day after application
Protocol: as §1, §6

pale smartweed (Po) [23] = assay: Test Example 3: herbicidal effects by upland field foliage treatment; assay type: in vivo; set-up: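 grade of growth control; 5 = at least 90%; 4 = 70 to 90%; 3 = 50 to 70%; 2 = 30 to 50%; 1 = 10 to 30%; 0 = under 10%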
Summary of the method: (§7)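 Foliage-applied treatment on weeds pre-grown for 2 weeks in a greenhouse. Pots held sand (surface area 120 cm^2); seeds were sown and covered with soil. Evaluation: graded herbicidal effect 14 days post-application.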

slender amaranth (Am) [24] = assay: as above; assay type: in vivo; set-up: scale not given here
Summary of the method: as §7

[25] = test system: common lambsquarters (Ch); assay: as above; assay type: in vivo; set-up: scale not given here
Summary of the method: as §7

barnyardgrass (Ec) [26] = assay: as above; assay type: in vivo; set-up: scale not given here
Summary of the method: as §7

Diaitaria ciliaris (Di) = assay: as above; assay type: in vivo; set-up: scale not given here
Summary of the method: as §7

rice flatsedge (Ci) [27] = assay: as above; assay type: in vivo; set-up: scale not given here
Summary of the method: as §7

pale smartweed (Po) [28] = assay: Test Example 9: crop plant selectivity by upland field foliage treatment (wheat), herbicidal effects; assay type: in vivo; set-up: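 grade of growth control; 5 = at least 90%; 4 = 70 to 90%; 3 = 50 to 70%; 2 = 30 to 50%; 1 = 10 to 30%; 0 = under 10%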; conditions: dose 1.6 g ai/10a, 14th day after treatment
Protocol: (§8) (Test on Crop Plant Selectivity by Upland Field Foliage Treatment)
(§9) In a plastic pot (surface area: 600 cm^2) filled with sand, wheat (Tr), pale smartweed (Po), slender amaranth (Am), common lambsquarters (Ch) and China jute (Ab) were sown and cultured in a green house for 2 weeks. […] The plants were then cultured in a green house, and the evaluation of the herbicidal effects and phytotoxicity was conducted on the 14th day after the treatment in accordance with the standards as identified in Table 47.

slender amaranth (Am) [29] = assay: as above; assay type: in vivo; set-up: scale not given here; conditions: dose 1.6 g ai/10a, 14th day after treatment
Protocol: as §8, §9

[30] = test system: common lambsquarters (Ch); assay: as above; assay type: in vivo; set-up: scale not given here; conditions: dose 1.6 g ai/10a, 14th day after treatment
Protocol: as §8, §9

China jute (Ab) [31] = assay: as above; assay type: in vivo; set-up: scale not given here; conditions: dose 1.6 g ai/10a, 14th day after treatment
Protocol: as §8, §9

wheat (Tr) [32] = assay: Test Example 9: crop plant selectivity by upland field foliage treatment (wheat), phytotoxicity; conditions: dose 1.6 g ai/10a, 14th day after treatment
Protocol: as §8, §9

[33] = 21st day after the application, index 0-5 of Table 47
[34] = 100 g of the active ingredient per 10 ares, evaluated on the 14th day after treatment
[35] = evaluated on the 21st day after application
[36] = 100 g active ingredient per 10 ares, evaluated 14th day after treatment

Structure (SMILES)	Herbicidal effects Po (pale smartweed (Po) [1])	Herbicidal effects Am (slender amaranth (Am) [2])	Herbicidal effects Se (green foxtail (Se) [3])	Herbicidal effects Ch [4]	Herbicidal effects Ab (China jute (Ab) [5])	Herbicidal effects Mo (monochoria (Mo))	Herbicidal effects Ec (barnyardgrass (Ec) [6])	Herbicidal effects Sc (bulrush (Sc))	Phytotoxicity Tr (wheat (Tr) [7])	Herbicidal effects Po (pale smartweed (Po) [8])	Herbicidal effects Am (slender amaranth (Am) [9])	Herbicidal effects Se (green foxtail (Se) [10])	Herbicidal effects Ch [11]	Herbicidal effects Ab (China jute (Ab) [12])	Phytotoxicity Go (cotton (Go))	Phytotoxicity Gl (soybean (Gl))	Herbicidal effects Po (pale smartweed (Po) [18])	Herbicidal effects Am (slender amaranth (Am) [19])	Herbicidal effects Se (green foxtail (Se) [20])	Herbicidal effects Ch [21]	further results
C=C(C)COc1cc(-c2ccc(C(F)(F)F)n(C)c2=O)c(F)cc1Cl [1-151]	5	5	5	5	5	5	5	5	2	5	5	5	5	5	1	0	5	5	5	5	Herbicidal effects Po (pale smartweed (Po) [13]; [33]): 5; Herbicidal effects Am (slender amaranth (Am) [14]; [33]): 5; Herbicidal effects Di (Digitaria ciliaris (Di); [33]): 5; Herbicidal effects Ch [15, 33]: 5; Herbicidal effects Ec (barnyardgrass (Ec) [16]; [33]): 5; Herbicidal effects Ci (rice flatsedge (Ci) [17]; [33]): 5; Herbicidal effects Ab (China jute (Ab) [22]): 5; Herbicidal effects Po (pale smartweed (Po) [23]; [34]): 5; Herbicidal effects Am (slender amaranth (Am) [24]; [34]): 5; Herbicidal effects Ch [25, 34]: 5; Herbicidal effects Ec (barnyardgrass (Ec) [26]; [34]): 5; Herbicidal effects Di (Diaitaria ciliaris (Di); [34]): 5; Herbicidal effects Ci (rice flatsedge (Ci) [27]; [34]): 5
C#CCN1C(=O)COc2cc(F)c(-c3cc(C)c(C(F)(F)F)n(C)c3=O)cc21 [Compound 2-2]	–	–	–	–	–	5	5	5	2	5	5	5	5	5	–	–	–	–	–	–	Herbicidal effects Po (pale smartweed (Po) [13]; [35]): 5; Herbicidal effects Am (slender amaranth (Am) [14]; [35]): 5; Herbicidal effects Di (Digitaria ciliaris (Di); [35]): 5; Herbicidal effects Ch [15, 35]: 5; Herbicidal effects Ec (barnyardgrass (Ec) [16]; [35]): 5; Herbicidal effects Ci (rice flatsedge (Ci) [17]; [35]): 5; Herbicidal effects Po (pale smartweed (Po) [23]; [36]): 5; Herbicidal effects Am (slender amaranth (Am) [24]; [36]): 5; Herbicidal effects Ch [25, 36]: 5; Herbicidal effects Ec (barnyardgrass (Ec) [26]; [36]): 5; Herbicidal effects Di (Diaitaria ciliaris (Di); [36]): 5; Herbicidal effects Ci (rice flatsedge (Ci) [27]; [36]): 5
CCN1C(=O)COc2cc(F)c(-c3ccc(C(F)(F)F)n(C)c3=O)cc21 [Compound 2-15]	5	5	5	5	5	5	5	5	1	5	5	5	5	5	0	1	5	5	5	5	Herbicidal effects Po (pale smartweed (Po) [28]): 5; Herbicidal effects Am (slender amaranth (Am) [29]): 5; Herbicidal effects Ch [30]: 5; Herbicidal effects Ab (China jute (Ab) [31]): 5; Herbicidal effects Po (pale smartweed (Po) [13]; [35]): 5; Herbicidal effects Am (slender amaranth (Am) [14]; [35]): 5; Herbicidal effects Di (Digitaria ciliaris (Di); [35]): 5; Herbicidal effects Ch [15, 35]: 5; Herbicidal effects Ec (barnyardgrass (Ec) [16]; [35]): 5; Herbicidal effects Ci (rice flatsedge (Ci) [17]; [35]): 5; Phytotoxicity Tr (wheat (Tr) [32]): 2; Herbicidal effects Ab (China jute (Ab) [22]): 5; Herbicidal effects Po (pale smartweed (Po) [23]; [36]): 5; Herbicidal effects Am (slender amaranth (Am) [24]; [36]): 5; Herbicidal effects Ch [25, 36]: 5; Herbicidal effects Ec (barnyardgrass (Ec) [26]; [36]): 5; Herbicidal effects Di (Diaitaria ciliaris (Di); [36]): 5; Herbicidal effects Ci (rice flatsedge (Ci) [27]; [36]): 5
